pIC50: −log10 of the molar value.
What was measured:
[1] = tested on: Vero; experiment: cells; conditions: Chlorocebus sabaeus, 48 h
Description: Cytotoxicity against african green monkey Vero cells after 48 hrs by MTT assay

[2] = tested on: LOX IMVI; experiment: cells; conditions: Homo sapiens
Description: Anticancer activity against human LOXIMVI cells

[3] = tested on: MCF7; experiment: cells; conditions: Homo sapiens
Description: Anticancer activity against human MCF7 cells

[4] = tested on: COLO 205; experiment: cells; conditions: Homo sapiens
Description: Anticancer activity against human COLO205 cells

[5] = tested on: Nucleic Acid; conditions: Homo sapiens
Description: Binding affinity to human G-quadruplex DNA assessed as change in melting temperature by FRET-melting assay

[6] = tested on: BT-549; experiment: cells; conditions: Homo sapiens
Description: Anticancer activity against human BT549 cells

[7] = tested on: OVCAR-4; experiment: cells; conditions: Homo sapiens
Description: Anticancer activity against human OVCAR4 cells

[8] = tested on: SF-268; experiment: cells; conditions: Homo sapiens
Description: Anticancer activity against human SF268 cells

[9] = tested on: NCI-H23; experiment: cells; conditions: Homo sapiens
Description: Anticancer activity against human NCI-H23 cells

[10] = tested on: MDA-MB-468; experiment: cells; conditions: Homo sapiens
Description: Anticancer activity against human MDA-MB-468 cells

[11] = tested on: OVCAR-8; experiment: cells; conditions: Homo sapiens
Description: Anticancer activity against human OVCAR8 cells

[12] = tested on: HCC 2998; experiment: cells; conditions: Homo sapiens
Description: Anticancer activity against human HCC2998 cells

[13] = tested on: KM12; experiment: cells; conditions: Homo sapiens
Description: Anticancer activity against human KM12 cells

[14] = tested on: SK-MEL-28; experiment: cells; conditions: Homo sapiens
Description: Anticancer activity against human SK-MEL-28 cells

[15] = tested on: MOLT-4; experiment: cells; conditions: Homo sapiens
Description: Anticancer activity against human MOLT4 cells

[16] = tested on: T47D; experiment: cells; conditions: Homo sapiens
Description: Anticancer activity against human T47D cells

[17] = tested on: PC-3; experiment: cells; conditions: Homo sapiens
Description: Anticancer activity against human PC3 cells

[18] = tested on: EKVX; experiment: cells; conditions: Homo sapiens
Description: Anticancer activity against human EKVX cells

[19] = tested on: DU-145; experiment: cells; conditions: Homo sapiens
Description: Anticancer activity against human DU145 cells

[20] = in vivo; conditions: mouse, cancer cell lines
Description: Toxicity in cancer cells containing hollow fiber implanted mouse

[21] = tested on: OVCAR-3; experiment: cells; conditions: Homo sapiens
Description: Anticancer activity against human OVCAR-3 cells

[22] = tested on: 786-0; experiment: cells; conditions: Homo sapiens
Description: Anticancer activity against human 786-0 cells

[23] = tested on: SNB-75; experiment: cells; conditions: Homo sapiens
Description: Anticancer activity against human SNB75 cells

[24] = tested on: SF-295; experiment: cells; conditions: Homo sapiens
Description: Anticancer activity against human SF295 cells

[25] = tested on: NCI-H322M; experiment: cells; conditions: Homo sapiens
Description: Anticancer activity against human NCI-H322M cells

[26] = tested on: SW-620; experiment: cells; conditions: Homo sapiens
Description: Anticancer activity against human SW620 cells

[27] = tested on: NCI/ADR-RES; experiment: cells; conditions: Homo sapiens
Description: Anticancer activity against human NCI/ADR-RES cells

[28] = tested on: RXF 393; experiment: cells; conditions: Homo sapiens
Description: Anticancer activity against human RXF393 cells

[29] = tested on: SN12C; experiment: cells; conditions: Homo sapiens
Description: Anticancer activity against human SN12C cells

[30] = tested on: UO-31; experiment: cells; conditions: Homo sapiens
Description: Anticancer activity against human UO31 cells

[31] = tested on: SF-539; experiment: cells; conditions: Homo sapiens
Description: Anticancer activity against human SF539 cells

[32] = tested on: OVCAR-5; experiment: cells; conditions: Homo sapiens
Description: Anticancer activity against human OVCAR5 cells

[33] = tested on: M14; experiment: cells; conditions: Homo sapiens
Description: Anticancer activity against human M14 cells

[34] = tested on: SR; experiment: cells; conditions: Homo sapiens
Description: Anticancer activity against human SR cells

CCN(CC)CCCCNc1c2ccccc2[n+](C)c2c1[nH]c1ccccc12.[Cl-]
pIC50 [1]: 4.21
GI50 ([2]; read-out: pGI50 (converted)): 331 nM
CC50 ([2]; read-out: pLC50 (converted)): 7410 nM
TGI ([2]; read-out: pTGI): 1410 nM
GI50 ([3]; MCF7, read-out: pGI50 (converted)): 224 nM
CC50 ([3]; MCF7, read-out: pLC50 (converted)): > 36300 nM
TGI ([3]; MCF7, read-out: pTGI): 794 nM
GI50 ([4]; COLO 205, read-out: pGI50 (converted)): 158 nM
CC50 ([4]; COLO 205, read-out: pLC50 (converted)): 2950 nM
TGI ([4]; COLO 205, read-out: pTGI): 676 nM
ΔTm [5]: 20.9 °C
GI50 ([6]; BT-549, read-out: pGI50 (converted)): 1380 nM
CC50 ([6]; BT-549, read-out: pLC50 (converted)): 7940 nM
TGI ([6]; BT-549, read-out: pTGI): 3310 nM
GI50 ([7]; OVCAR-4, read-out: pGI50 (converted)): 437 nM
TGI ([7]; OVCAR-4, read-out: pTGI): 1700 nM
GI50 ([8]; SF-268, read-out: pGI50 (converted)): 224 nM
CC50 ([8]; SF-268, read-out: pLC50 (converted)): 33100 nM
TGI ([8]; SF-268, read-out: pTGI): 1580 nM
GI50 ([9]; NCI-H23, read-out: pGI50 (converted)): 191 nM
CC50 ([9]; NCI-H23, read-out: pLC50 (converted)): 3470 nM
TGI ([9]; NCI-H23, read-out: pTGI): 724 nM
GI50 ([10]; MDA-MB-468, read-out: pGI50 (converted)): 204 nM
CC50 ([10]; MDA-MB-468, read-out: pLC50 (converted)): 2140 nM
TGI ([10]; MDA-MB-468, read-out: pTGI): 550 nM
GI50 ([11]; OVCAR-8, read-out: pGI50 (converted)): 617 nM
CC50 ([11]; OVCAR-8, read-out: pLC50 (converted)): > 100000 nM
TGI ([11]; OVCAR-8, read-out: pTGI): 10200 nM
GI50 ([12]; HCC 2998, read-out: pGI50 (converted)): 269 nM
CC50 ([12]; HCC 2998, read-out: pLC50 (converted)): 3630 nM
TGI ([12]; HCC 2998, read-out: pTGI): 759 nM
GI50 ([13]; KM12, read-out: pGI50 (converted)): 372 nM
CC50 ([13]; KM12, read-out: pLC50 (converted)): 70800 nM
TGI ([13]; KM12, read-out: pTGI): 4470 nM
GI50 ([14]; SK-MEL-28, read-out: pGI50 (converted)): 186 nM
CC50 ([14]; SK-MEL-28, read-out: pLC50 (converted)): 1740 nM
TGI ([14]; SK-MEL-28, read-out: pTGI): 490 nM
GI50 ([15]; MOLT-4, read-out: pGI50 (converted)): 339 nM
CC50 ([15]; MOLT-4, read-out: pLC50 (converted)): > 100000 nM
TGI ([15]; MOLT-4, read-out: pTGI): 42700 nM
GI50 ([16]; read-out: pGI50 (converted)): 129 nM
CC50 ([16]; read-out: pLC50 (converted)): 25700 nM
TGI ([16]; read-out: pTGI): 776 nM
GI50 ([17]; PC-3, read-out: pGI50 (converted)): 324 nM
CC50 ([17]; PC-3, read-out: pLC50 (converted)): 100000 nM
TGI ([17]; PC-3, read-out: pTGI): 2240 nM
GI50 ([18]; read-out: pGI50 (converted)): 269 nM
CC50 ([18]; read-out: pLC50 (converted)): > 100000 nM
TGI ([18]; read-out: pTGI): 3630 nM
GI50 ([19]; DU-145, read-out: pGI50 (converted)): 170 nM
CC50 ([19]; DU-145, read-out: pLC50 (converted)): 89100 nM
TGI ([19]; DU-145, read-out: pTGI): 10000 nM
MTD [20]: 50 mg/kg
GI50 ([21]; OVCAR-3, read-out: pGI50 (converted)): 427 nM
CC50 ([21]; OVCAR-3, read-out: pLC50 (converted)): > 100000 nM
TGI ([21]; OVCAR-3, read-out: pTGI): 2450 nM
GI50 ([22]; 786-0, read-out: pGI50 (converted)): 1910 nM
CC50 ([22]; 786-0, read-out: pLC50 (converted)): 97700 nM
TGI ([22]; 786-0, read-out: pTGI): 6760 nM
GI50 ([23]; SNB-75, read-out: pGI50 (converted)): 347 nM
CC50 ([23]; SNB-75, read-out: pLC50 (converted)): 3800 nM
TGI ([23]; SNB-75, read-out: pTGI): 1290 nM
GI50 ([24]; SF-295, read-out: pGI50 (converted)): 603 nM
CC50 ([24]; SF-295, read-out: pLC50 (converted)): > 100000 nM
TGI ([24]; SF-295, read-out: pTGI): 5010 nM
GI50 ([25]; read-out: pGI50 (converted)): 275 nM
CC50 ([25]; read-out: pLC50 (converted)): > 100000 nM
TGI ([25]; read-out: pTGI): 2750 nM
GI50 ([26]; SW-620, read-out: pGI50 (converted)): 339 nM
CC50 ([26]; SW-620, read-out: pLC50 (converted)): > 100000 nM
TGI ([26]; SW-620, read-out: pTGI): 5250 nM
GI50 ([27]; read-out: pGI50 (converted)): 69200 nM
CC50 ([27]; read-out: pLC50 (converted)): > 100000 nM
TGI ([27]; read-out: pTGI): > 100000 nM
GI50 ([28]; RXF 393, read-out: pGI50 (converted)): 389 nM
CC50 ([28]; RXF 393, read-out: pLC50 (converted)): 8130 nM
TGI ([28]; RXF 393, read-out: pTGI): 1510 nM
GI50 ([29]; read-out: pGI50 (converted)): 52.5 nM
CC50 ([29]; read-out: pLC50 (converted)): > 72400 nM
TGI ([29]; read-out: pTGI): 3240 nM
GI50 ([30]; UO-31, read-out: pGI50 (converted)): 2400 nM
CC50 ([30]; UO-31, read-out: pLC50 (converted)): > 100000 nM
TGI ([30]; UO-31, read-out: pTGI): 25700 nM
GI50 ([31]; SF-539, read-out: pGI50 (converted)): 427 nM
CC50 ([31]; SF-539, read-out: pLC50 (converted)): 4070 nM
TGI ([31]; SF-539, read-out: pTGI): 1620 nM
GI50 ([32]; OVCAR-5, read-out: pGI50 (converted)): 851 nM
CC50 ([32]; OVCAR-5, read-out: pLC50 (converted)): > 100000 nM
TGI ([32]; OVCAR-5, read-out: pTGI): 4170 nM
GI50 ([33]; M14, read-out: pGI50 (converted)): 1350 nM
CC50 ([33]; M14, read-out: pLC50 (converted)): 7410 nM
TGI ([33]; M14, read-out: pTGI): 3160 nM
GI50 ([34]; read-out: pGI50 (converted)): 372 nM
CC50 ([34]; read-out: pLC50 (converted)): > 100000 nM
TGI ([34]; read-out: pTGI): 42700 nM
